Measurements as given in US20110166192A1, “PROCESS FOR CHARGING A POLYMERIC PRODUCT WITH ATTRIBUTE IMPARTING AGENT(S)” (ADITYA BIRLA SCIENCE & TECHNOLOGY CO. LTD., priority 2008, published 2011).

System: Staphylococcus Aureus bacteria strain ATCC 6538
Test: Sustained/control release of anti-bacterial agent from the polymeric product at various temperatures, AATCC 147 zone of inhibition (FIG. 2)
Format: cell-based
Conditions: polymeric product containing reservoir (melting range of 35-65° C.) with triclosan, 24 hr contact time
Procedure: The activity of an anti-bacterial agent in the polymeric product was conducted by Qualitative AATCC 147 method. The test was conducted with Staphylococcus Aureus bacteria strain ATCC 6538. Observation of growth under the specimen accompanied with no zone of inhibition was considered as No (i.e. failed test with no anti-bacterial activity) and no growth under the specimen, with or without zone of inhibition was considered as Yes (passed test with anti-bacterial activity).
Also the polymeric product containing reservoir (melting range of 35-65° C.) was incorporated with triclosan as anti-bacterial ingredient. The product was washed and dried at ambient temperature of 20° C. after which the fabric was maintained at said temperature for 30 minutes and measured for efficacy. Anti-bacterial analysis was done based on AATCC 147 with 24 hr contact time and the zone of inhibition (in mm) was measured. The sustained/control release of an anti-bacterial agent in the polymeric product was studied at various temperatures. The results are displaced in FIG. 2 of accompanying drawings.

Compound: Oc1cc(Cl)ccc1Oc1ccc(Cl)cc1Cl [triclosan, 5-chloro-2-(2,4-dichlorophenoxy)phenol]
- release profile of anti-bacterial agent (zone of inhibition): sustained/control release profile with temperature
